Data published in patent publication US20260070900A1, “A NOVEL CRYSTALLINE FORM OF PRITELIVIR” (Assembly Biosciences, Inc., priority 2022, published 2026).
“Also recorded” adds a separate entry of the source.

Assays:
[1] = Solubility determination in 0.9% NaCl and 0.5% polysorbate 80 (HPLC of filtrate); type: physicochemical; details: RT, aqueous vehicle with 0.9% NaCl and 0.5% polysorbate 80, at 24 hours
Protocol: Sample preparation: excess Type 4 was added to the vehicle containing 0.9% NaCl and 0.5% polysorbate 80. The mixture was sonicated for 15 minutes, then agitated at 500 rpm at room temperature. At 24 hours, the mixture was filtrated, and filtrate was analyzed by HPLC to determine the solubility. • Instrument: Agilent 1260 • Column: ACE ultracore super C18 (100 mm*4.6 mm*2.5 μm) (P/N: CORE-25A-1046U) • Wavelength: 234 nm • Column Temperature: 20° C. • Column Flow: 1.0 mL/min • Acquisition time: 25 min • Injection volume: 5 μL • Retention time: ˜14 min • Mobile Phase A: 5 mM (NH4)2HPO4 and 5 mM of NH4H2PO4 in H2O • Mobile Phase B: ACN The solubility of Form C (hemihydrate as disclosed in WO 2018/096170) was determined in the same media used to determine the solubility of Type 4 as described above. Sample preparation: excess Form C was added to the vehicle containing 0.9% NaCl and 0.5% polysorbate 80. The mixture was sonicated for 15 minutes, then agitated at 500 rpm at room temperature. […]

[2] = Dynamic vapor sorption (DVS) humidity stability, with XRPD post-DVS; type: physicochemical
Protocol: Powder X-Ray Diffraction (PXRD): PXRD diffractograms were acquired on Rigaku Smartlab SE diffractometer using Cu, Kα, Kα1(Å):1.540598, Kα2(Å):1.544426 radiation with a Kα2:Kα1 intensity ratio of 0.50. X-Ray tube setting was 40 kV, 15 mA, Scan Mode 1D. The scan range (2 theta) was 3-40°, step size (2 theta) of 0.02° with scan speed (2 theta) of 10°/min. Dynamic Vapor Sorption (DVS): DVS analysis was performed on an Adventure DVS instrument, using a partial pressure range of 0-90%, with a step size of 10% and dm/dt=0.002. DVS data was collected at 25° C. 2 cycles were performed per analysis. Gas flow of N2 (200 sccm) was used.

[3] = DVS at 25° C., 0-90% partial pressure, 2 cycles

Compound	solubility [1]	relative humidity at which the form is stable (DVS) [2, 3]	relative humidity at which weight loss is observed (DVS) [2, 3]	solid form post DVS experiment by XRPD ([2]; after DVS, XRPD)	stability to humidity (in words) ([2]; conclusion from the characterization data of Example 1)
Cc1nc(N(C)C(=O)Cc2ccc(-c3ccccn3)cc2)sc1S(N)(=O)=O [Form C, N-methyl-N-(4-methyl-5-sulfamoylthiazol-2-yl)-2-(4-(pyridin-2-yl)phenyl)acetamide, reference compound]	around 8.4 μg/mL	–	–	–	–
Cc1nc(N(C)C(=O)Cc2ccc(-c3ccccn3)cc2)sc1S(N)(=O)=O [Type 4, N-methyl-N-(4-methyl-5-sulfamoylthiazol-2-yl)-2-(4-(pyridin-2-yl)phenyl)acetamide]	around 18.2 μg/mL	greater than 20%	less than 10%	confirmed as Type 4	stable across a large humidity range; also recorded: stable across a wide range of humidity levels
